Source: patent publication US12281119B2, “Imidazo[2,1-f][1,2,4]triazin-4-amine derivatives as TLR7 agonist” (BEIGENE, LTD., priority 2019, dated 2025)

target: T1, human TLR7 (Homo sapiens, UniProt Q9NYK1); assay: HEK293-Blue hTLR7 reporter assay (QUANTI-BLUE, SEAP readout); assay type: cell-based; parameters: host or cells: HEK293 (HEK-Blue-hTLR7); settings: HEK-Blue-hTLR7 cells, QUANTI-BLUE assay (A1-A76), 24 hrs
T1 sequence (Q9NYK1 27-1049): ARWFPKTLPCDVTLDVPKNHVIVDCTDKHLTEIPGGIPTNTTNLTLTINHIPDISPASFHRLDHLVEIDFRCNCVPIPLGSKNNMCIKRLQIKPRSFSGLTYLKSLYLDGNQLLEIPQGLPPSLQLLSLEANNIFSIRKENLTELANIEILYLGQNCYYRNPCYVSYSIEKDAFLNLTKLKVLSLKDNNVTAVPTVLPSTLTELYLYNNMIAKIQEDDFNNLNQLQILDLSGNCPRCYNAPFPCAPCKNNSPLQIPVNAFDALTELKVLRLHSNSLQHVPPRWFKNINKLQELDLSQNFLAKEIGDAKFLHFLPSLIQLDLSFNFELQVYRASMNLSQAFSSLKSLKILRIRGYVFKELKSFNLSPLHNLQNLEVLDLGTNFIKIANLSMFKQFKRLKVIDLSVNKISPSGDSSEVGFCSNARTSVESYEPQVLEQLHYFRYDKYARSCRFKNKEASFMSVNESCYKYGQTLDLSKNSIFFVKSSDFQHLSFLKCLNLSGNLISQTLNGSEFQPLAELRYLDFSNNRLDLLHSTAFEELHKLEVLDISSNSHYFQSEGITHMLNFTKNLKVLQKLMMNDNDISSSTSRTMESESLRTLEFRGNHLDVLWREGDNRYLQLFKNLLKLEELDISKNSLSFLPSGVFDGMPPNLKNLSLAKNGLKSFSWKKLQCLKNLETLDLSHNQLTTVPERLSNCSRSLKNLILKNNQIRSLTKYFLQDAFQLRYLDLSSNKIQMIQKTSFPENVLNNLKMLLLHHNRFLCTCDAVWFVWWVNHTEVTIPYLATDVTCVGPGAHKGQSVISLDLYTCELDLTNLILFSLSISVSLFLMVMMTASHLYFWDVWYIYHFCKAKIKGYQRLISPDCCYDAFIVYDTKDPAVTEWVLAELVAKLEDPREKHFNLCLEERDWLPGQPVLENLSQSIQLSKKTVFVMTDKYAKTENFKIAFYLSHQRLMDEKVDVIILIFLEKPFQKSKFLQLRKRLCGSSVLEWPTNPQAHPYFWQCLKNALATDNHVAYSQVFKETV
Experimental: HEK293-Blue hTLR7 Reporter Assay:
HEK-Blue-hTLR7 cell line (Invivogen, Cat. No. hkb-htlr7) was designed so that the expression of the secreted embryonic alkaline phosphatase (SEAP) was induced by activating NF-κ and AP-1 via stimulating human TLR7 with TLR7 agonists.
HEK-Blue-hTLR7 cells were seeded at a density of 4×10^4 cells/well in a volume of 180 μL in a 96-well plate in DMEM (Cat. No. 11965-092) supplemented with 10% (v/v) heat-inactivated fetal bovine serum (FBS) (Gibco, 10099-1441), 100 U/ml penicillin and 100 μg/ml streptomycin (Gibco, 15140122) containing […], […] and 10% (v/v) heat-inactivated fetal bovine serum. The cells were settled for 5 hrs, then treated with increasing amounts of tested compounds at 37° C. for 24 hrs. Then 20 μL of the supernatant from each well was incubated with 180 uL Quanti-blue substrate solution at 37° C. for 10-30 mins before the activity of the SEAP was determined at 620-655 nm using a spectrophotometer. The EC50 value for each compound was calculated with GraphPad Prism software using the sigmoidal dose-response function.

`CCCCOc1nc(N)c2ncc(Cc3cnc(OCCCN(C)C)c(Cl)c3)n2n1` [Compound A34, 2-butoxy-7-((5-chloro-6-(3-(dimethylamino)propoxy)pyridin-3-yl)methyl)imidazo[2,1-f][1,2,4]triazin-4-amine] and `CCCCOc1nc(N)c2ncc(Cc3cnc(OCC(C)(C)CN(C)C)c(Cl)c3)n2n1` [Compound A45, 2-butoxy-7-((5-chloro-6-(3-(dimethylamino)-2,2-dimethylpropoxy)pyridin-3-yl)methyl)imidazo[2,1-f][1,2,4]triazin-4-amine] are within 1.5-fold of each other in EC50: 3370 nM for the first, 3840 nM for the second.

Compared with `CCCCOc1nc(N)c2ncc(Cc3ccc(OCCCN(C)C)c(F)c3)n2n1` [Compound A35, 2-butoxy-7-(4-(3-(dimethylamino)propoxy)-3-fluorobenzyl)imidazo[2,1-f][1,2,4]triazin-4-amine], `CCCCOc1nc(N)c2ncc(Cc3ccc(OCCCN(C)C)c(C(=O)OC)c3)n2n1` [Compound A57, methyl 5-((4-amino-2-butoxyimidazo[2,1-f][1,2,4]triazin-7-yl)methyl)-2-(3-(dimethylamino)propoxy)benzoate] is 5.5-fold lower in EC50: 2070 nM for the first, 375 nM for the second. The second is the more potent here.

`CCCCOc1nc(N)c2ncc(Cc3ccc(OCCCN(C)C)cc3F)n2n1` [Compound A36, 2-butoxy-7-(4-(3-(dimethylamino)propoxy)-2-fluorobenzyl)imidazo[2,1-f][1,2,4]triazin-4-amine] and `CCCCOc1nc(N)c2ncc(Cc3ccc(OCCCNC)cc3)n2n1` [Compound A63, 2-butoxy-7-(4-(3-(methylamino)propoxy)benzyl)imidazo[2,1-f][1,2,4]triazin-4-amine] are within 1.5-fold of each other in EC50: 880 nM for the first, 996 nM for the second.

`CCCCOc1nc(N)c2ncc(Cc3ccc(OCCN)nc3)n2n1` [Compound A37, 7-((6-(2-aminoethoxy)pyridin-3-yl)methyl)-2-butoxyimidazo[2,1-f][1,2,4]triazin-4-amine] and `CCCCOc1nc(N)c2ncc(Cc3ccc(OCCN(C)C(C)=O)nc3)n2n1` [Compound A59, N-(2-((5-((4-amino-2-butoxyimidazo[2,1-f][1,2,4]triazin-7-yl)methyl)pyridin-2-yl)oxy)ethyl)-N-methylacetamide] cannot be ordered by EC50: > 10000 nM for the first, > 10000 nM for the second.

Going from `CCCCOc1nc(N)c2ncc(Cc3ccc(OC4C[C@H]5CC[C@@H](C4)N5)cc3F)n2n1` (stereo partly drawn) [Compound A38, 7-(4-(((1R,5S)-8-azabicyclo[3.2.1]octan-3-yl)oxy)-2-fluorobenzyl)-2-butoxyimidazo[2,1-f][1,2,4]triazin-4-amine] to `CCCCOc1nc(N)c2ncc(Cc3ccc(OC4C[C@H]5CC[C@@H](C4)N5CC)cc3F)n2n1` (stereo partly drawn) [Compound A49, 2-butoxy-7-(4-(((1R,5S)-8-ethyl-8-azabicyclo[3.2.1]octan-3-yl)oxy)-2-fluorobenzyl)imidazo[2,1-f][1,2,4]triazin-4-amine], the EC50 rises from 1860 nM to 4320 nM (2.3-fold).

Going from `CCCCOc1nc(N)c2ncc(Cc3ccc(CN4CCN(C(=O)CN(C)C)CC4)cc3)n2n1` [Compound A39, 1-(4-(4-((4-amino-2-butoxyimidazo[2,1-f][1,2,4]triazin-7-yl)methyl)benzyl)piperazin-1-yl)-2-(dimethylamino)ethan-1-one] to `CCCCOc1nc(N)c2ncc(Cc3ccc(CN4CCC(N(C)C)C4)cc3)n2n1` (stereo not drawn) [Compound A44, 2-butoxy-7-(4-((3-(dimethylamino)pyrrolidin-1-yl)methyl)benzyl)imidazo[2,1-f][1,2,4]triazin-4-amine], the EC50 rises from 543 nM to 1010 nM (1.9-fold). The first is the more potent here.

First: CCCCOc1nc(N)c2ncc(Cc3cnc(OC4CCNCC4)c(Cl)c3)n2n1 [Compound A40, 2-butoxy-7-((5-chloro-6-(piperidin-4-yloxy)pyridin-3-yl)methyl)imidazo[2,1-f][1,2,4]triazin-4-amine]
Second: CCCCOc1nc(N)c2ncc(Cc3ccc(OC4CCNC4)cc3F)n2n1 (stereo not drawn) [Compound A61, 2-butoxy-7-(2-fluoro-4-(pyrrolidin-3-yloxy)benzyl)imidazo[2,1-f][1,2,4]triazin-4-amine]
The EC50 of the first is 3.3-fold higher: 602 nM for the first, 183 nM for the second.

First: CCCCOc1nc(N)c2ncc(Cc3ccc(CN4C[C@@H]5C[C@H]4CN5)cc3)n2n1 [Compound A41, 7-(4-(((1S,4S)-2,5-diazabicyclo[2.2.1]heptan-2-yl)methyl)benzyl)-2-butoxyimidazo[2,1-f][1,2,4]triazin-4-amine]
Second: CCCCOc1nc(N)c2ncc(Cc3ccc(CN)cc3)n2n1 [Compound A46, 7-(4-(aminomethyl)benzyl)-2-butoxyimidazo[2,1-f][1,2,4]triazin-4-amine]
The EC50 of the first is lower: 1590 nM for the first, > 10000 nM for the second. The first is the more potent here.

Going from `CCCCOc1nc(N)c2ncc(Cc3ccc(CCN4CCCC4)cc3)n2n1` [Compound A42, 2-butoxy-7-(4-(2-(pyrrolidin-1-yl)ethyl)benzyl)imidazo[2,1-f][1,2,4]triazin-4-amine] to `CC(C)COc1nc(N)c2ncc(Cc3ccc(CN4CCCC4)cc3)n2n1` [Compound A54, 2-isobutoxy-7-(4-(pyrrolidin-1-ylmethyl)benzyl)imidazo[2,1-f][1,2,4]triazin-4-amine], the EC50 rises from 1380 nM to > 10000 nM. The first is the more potent here.

`CCCCOc1nc(N)c2ncc(Cc3ccc(CN4CCC(Oc5ccccc5)CC4)cc3)n2n1` [Compound A47, 2-butoxy-7-(4-((4-phenoxypiperidin-1-yl)methyl)benzyl)imidazo[2,1-f][1,2,4]triazin-4-amine] and `CCCCOc1nc(N)c2ncc(Cc3ccc(Cn4cncn4)cc3)n2n1` [Compound A62, 7-(4-((1H-1,2,4-triazol-1-yl)methyl)benzyl)-2-butoxyimidazo[2,1-f][1,2,4]triazin-4-amine] cannot be ordered by EC50: > 10000 nM for the first, > 10000 nM for the second.

`Cc1cc(COc2nc(N)c3ncc(Cc4ccc(CN5CCCC5)cc4)n3n2)no1` [Compound A48, 2-((5-methylisoxazol-3-yl)methoxy)-7-(4-(pyrrolidin-1-ylmethyl)benzyl)imidazo[2,1-f][1,2,4]triazin-4-amine] and `Nc1nc(N)c2ncc(Cc3ccc(CN4CCCC4)cc3)n2n1` [Compound A52, 7-(4-(pyrrolidin-1-ylmethyl)benzyl)imidazo[2,1-f] [1,2,4]triazine-2,4-diamine] cannot be ordered by EC50: > 10000 nM for the first, > 10000 nM for the second.

`CCCCOc1nc(N)c2ncc(Cc3ccc(OC)cn3)n2n1` [Compound A50, 2-butoxy-7-((5-methoxypyridin-2-yl)methyl)imidazo[2,1-f][1,2,4]triazin-4-amine] and `CCCCOc1nc(N)c2ncc(Cc3cccc(OC)n3)n2n1` [Compound A51, 2-butoxy-7-((6-methoxypyridin-2-yl)methyl)imidazo[2,1-f][1,2,4]triazin-4-amine] cannot be ordered by EC50: > 10000 nM for the first, > 10000 nM for the second.

First: CCCCOc1nc(N)c2ncc(Cc3ccc(OCC(C)(C)CN(C)C)nc3)n2n1 [Compound A53, 2-butoxy-7-((6-(3-(dimethylamino)-2,2-dimethylpropoxy)pyridin-3-yl)methyl)imidazo[2,1-f][1,2,4]triazin-4-amine]
Second: CCCCOc1nc(N)c2ncc(Cc3ncccc3OC)n2n1 [Compound A55, 2-butoxy-7-((3-methoxypyridin-2-yl)methyl)imidazo[2,1-f][1,2,4]triazin-4-amine]
The EC50 of the first is lower: 1430 nM for the first, > 10000 nM for the second. The first is the more potent here.

Going from `CCCCOc1nc(N)c2ncc(C(O)c3ncccc3OC)n2n1` (stereo not drawn) [Compound A56, (4-amino-2-butoxyimidazo[2,1-f][1,2,4]triazin-7-yl)(3-methoxypyridin-2-yl)methanol] to `CCCCOc1nc(N)c2ncc(Cc3ccc(OC4CCN(CC)C4)cc3F)n2n1` (stereo not drawn) [Compound A60, 2-butoxy-7-(4-((1-ethylpyrrolidin-3-yl)oxy)-2-fluorobenzyl)imidazo[2,1-f][1,2,4]triazin-4-amine], the EC50 falls from > 10000 nM to 246 nM.

Going from `Nc1nc(NCc2ccco2)nn2c(Cc3ccc(CN4CCCC4)cc3)cnc12` [Compound A64, N^2-(furan-2-ylmethyl)-7-(4-(pyrrolidin-1-ylmethyl)benzyl)imidazo[2,1-f][1,2,4]triazine-2,4-diamine] to `Nc1nc(O)nn2c(Cc3ccc(CN4CCCC4)cc3)cnc12` [Compound A65, 4-amino-7-(4-(pyrrolidin-1-ylmethyl)benzyl)imidazo[2,1-f][1,2,4]triazin-2-ol], the EC50 rises from 4000 nM to > 10000 nM. The first is the more potent here.
